{
  "source": "patent US20040209914A1",
  "about": "“Aromatic sulfone hydroxamic acids and their use as protease inhibitors” (priority 2000, published 2004)",
  "key": {"Recombinant human MMP-2": {"target": "T1, Recombinant human MMP-2 (Homo sapiens, UniProt P08253)", "T1 construct": "made in house", "T1 sequence (P08253 110-660)": "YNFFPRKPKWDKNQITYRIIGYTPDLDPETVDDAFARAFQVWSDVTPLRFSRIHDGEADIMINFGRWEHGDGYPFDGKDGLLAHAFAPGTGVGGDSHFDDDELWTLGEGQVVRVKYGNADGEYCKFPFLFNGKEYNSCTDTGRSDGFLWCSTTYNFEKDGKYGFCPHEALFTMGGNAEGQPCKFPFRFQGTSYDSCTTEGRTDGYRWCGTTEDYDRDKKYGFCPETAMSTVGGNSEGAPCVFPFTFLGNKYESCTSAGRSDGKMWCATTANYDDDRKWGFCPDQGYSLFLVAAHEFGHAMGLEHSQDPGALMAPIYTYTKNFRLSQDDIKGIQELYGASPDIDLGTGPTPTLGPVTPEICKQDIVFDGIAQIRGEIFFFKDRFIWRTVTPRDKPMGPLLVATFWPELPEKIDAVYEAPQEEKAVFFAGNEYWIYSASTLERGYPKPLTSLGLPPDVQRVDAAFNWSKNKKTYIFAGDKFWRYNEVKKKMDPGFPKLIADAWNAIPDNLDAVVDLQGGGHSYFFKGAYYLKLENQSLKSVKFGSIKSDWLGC", "experiment": "biochemical", "details": "fluorogenic MCA-peptide substrate, pH 7.5, room temperature; read-out: MMP-2 IC50", "protocol": "(§1) Recombinant human MMP-1, MMP-2, MMP-9, MMP-13, and were used in this assay. These enzymes were prepared in the Assignee's es following usual laboratory procedures. Specifics for preparing and e enzymes can be found in the scientific literature describing these See, e.g., Enzyme Nomenclature (Academic Press, San Diego, Calif., d the citations therein).\nThe MMP-2 was obtained from MMP-2 expressing transfected cells provided by Dr. Gregory Goldberg of Washington University.\n(§2) The enzyme substrate was a methoxycoumarin-containing polypeptide having the following sequence:\n(§3) MCA-ProLeuGlyLeuDpaAlaArgNH2\n(§4) Here, “MCA” is methoxycoumarin and “Dpa” is 3-(2,4-dinitrophenyl)-L-2,3-diaminopropionyl alanine.\n(§5) These solutions were then compared to a control (which contained equal amount of DMSO/buffer solution, but no hydroxamate compound) using Microfluor™ White Plates (Dynatech, Chantilly, Va.). Specifically, The MMPs were activated with APMA or trypsin. […] The control likewise was incubated at room temperature in separate plates with the MMP and 4 uM of the MMP substrate. […] Inhibition was measured as a reduction in fluorescent intensity as a function of inhibitor concentration using a Perkin Elmer (Norwalk, Conn.) L550 plate reader. The IC50's were then calculated from these measurements."}, "Recombinant human MMP-13": {"target": "T2, Recombinant human MMP-13 (Homo sapiens, UniProt P45452)", "T2 construct": "made in house; host or cells: baculovirus / insect cells", "experiment": "biochemical", "details": "fluorogenic MCA-peptide substrate, pH 7.5, room temperature; read-out: MMP-13 IC50", "protocol": "as §1\nThe expressed proenzyme was first purified over a heparin agarose column, and then over a chelating zinc chloride column. The proenzyme was then activated by APMA for use in the assay.\nas §2, §3, §4, §5"}},
  "note": "Structures can show the parent of a compound that is named as a salt.",
  "data": [
    {"molecule": "CS(=O)(=O)N1CCC(C(=O)NO)(S(=O)(=O)c2ccc(N3CCC(C(=O)c4ccc5ccccc5c4)CC3)cc2)CC1", "note": "[Example 166]", "values": [
      {"measurement": "IC50", "setting": "Recombinant human MMP-2", "result": "> 10000", "unit": "nM"},
      {"measurement": "IC50", "setting": "Recombinant human MMP-13", "result": 438, "unit": "nM"}
    ]},
    {"molecule": "O=C(NO)C1(S(=O)(=O)c2ccc(N3CCC(SCc4ccc(OC(F)(F)F)cc4)CC3)cc2)CCNCC1", "note": "[Example 146]", "values": [
      {"measurement": "IC50", "setting": "Recombinant human MMP-2", "result": 200, "unit": "nM"},
      {"measurement": "IC50", "setting": "Recombinant human MMP-13", "result": 4, "unit": "nM"}
    ]},
    {"molecule": "O=C(c1ccc(CN2CCCC2)cc1)C1CCN(c2ccc(S(=O)(=O)C3(C(=O)NO)CCOCC3)cc2)CC1", "note": "[Example 385]", "values": [
      {"measurement": "IC50", "setting": "Recombinant human MMP-2", "result": 34.6, "unit": "nM"},
      {"measurement": "IC50", "setting": "Recombinant human MMP-13", "result": 3.2, "unit": "nM"}
    ]},
    {"molecule": "CCCCOc1ccc(C(=O)C2CCN(c3ccc(S(=O)(=O)C4(C(=O)NO)CCOCC4)cc3)CC2)cc1", "note": "[Example 329]", "values": [
      {"measurement": "IC50", "setting": "Recombinant human MMP-2", "result": 1800, "unit": "nM"},
      {"measurement": "IC50", "setting": "Recombinant human MMP-13", "result": 20, "unit": "nM"}
    ]},
    {"molecule": "C[C@H]1C[C@H](C)CN(C(=O)C2CCN(c3ccc(S(=O)(=O)C4(C(=O)NO)CCNCC4)cc3)CC2)C1", "note": "(relative stereo) [Example 72, rel-4-[[4-[4-[[(3R,5R)-3,5-dimethyl-1-piperidinyl]carbonyl]-1-piperidinyl]phenyl]sulfonyl]-N-hydroxy-4-piperidinecarboxamide, monohydrochloride]", "values": [
      {"measurement": "IC50", "setting": "Recombinant human MMP-2", "result": 10000, "unit": "nM"}
    ]},
    {"molecule": "COCCN1CCC(C(=O)NO)(S(=O)(=O)c2ccc(N3CCC(C(=O)c4ccc(C=C(C)C)s4)CC3)cc2)CC1", "note": "[Example 122]", "values": [
      {"measurement": "IC50", "setting": "Recombinant human MMP-2", "result": 106, "unit": "nM"},
      {"measurement": "IC50", "setting": "Recombinant human MMP-13", "result": 0.1, "unit": "nM"}
    ]},
    {"molecule": "CC1CC(C)CN(C(=O)C2CCN(c3ccc(S(=O)(=O)C4(C(=O)NO)CCN(C(=O)CN5CCN(CCN(C)C)CC5)CC4)cc3)CC2)C1", "note": "(stereo not drawn) [Example 111]", "values": [
      {"measurement": "IC50", "setting": "Recombinant human MMP-2", "result": 10000, "unit": "nM"}
    ]},
    {"molecule": "COCCN1CCC(C(=O)NO)(S(=O)(=O)c2ccc(N3CCC(C(=O)c4ccc(OC(C)C)c(F)c4)CC3)cc2)CC1", "note": "[Example 250]", "values": [
      {"measurement": "IC50", "setting": "Recombinant human MMP-2", "result": 107, "unit": "nM"},
      {"measurement": "IC50", "setting": "Recombinant human MMP-13", "result": 2.1, "unit": "nM"}
    ]},
    {"molecule": "CCN1CCC(C(=O)NO)(S(=O)(=O)c2ccc(N3CCC(C(=O)c4ccc(NC)cc4)CC3)cc2)CC1", "note": "[Example 172]", "values": [
      {"measurement": "IC50", "setting": "Recombinant human MMP-2", "result": 649, "unit": "nM"},
      {"measurement": "IC50", "setting": "Recombinant human MMP-13", "result": 3.1, "unit": "nM"}
    ]},
    {"molecule": "O=C(NO)C1(S(=O)(=O)c2ccc(N3CCC(SCc4ccccc4Cl)CC3)cc2)CCN(C2CC2)CC1", "note": "[Example 147]", "values": [
      {"measurement": "IC50", "setting": "Recombinant human MMP-2", "result": 145, "unit": "nM"},
      {"measurement": "IC50", "setting": "Recombinant human MMP-13", "result": 20, "unit": "nM"}
    ]},
    {"molecule": "C[C@@H]1CN(C(=O)C2CCN(c3ccc(S(=O)(=O)C4(C(=O)NO)CCOCC4)cc3)CC2)C[C@H](C)O1", "note": "[Example 30]", "values": [
      {"measurement": "IC50", "setting": "Recombinant human MMP-2", "result": "> 10000", "unit": "nM"},
      {"measurement": "IC50", "setting": "Recombinant human MMP-13", "result": 18.1, "unit": "nM"}
    ]},
    {"molecule": "COCCN1CCC(C(=O)NO)(S(=O)(=O)c2ccc(N3CCC(C(=O)c4ccc(CCCC(C)O)cc4)CC3)cc2)CC1", "note": "(stereo not drawn) [Example 244]", "values": [
      {"measurement": "IC50", "setting": "Recombinant human MMP-13", "result": 0.2, "unit": "nM"}
    ]},
    {"molecule": "C[C@@H]1C[C@H](C)CN(C(=O)C2CCN(c3ccc(S(=O)(=O)C4(C(=O)NO)CCNCC4)cc3)CC2)C1", "note": "[Example 74, rel-4-[[4-[4-[[(3R,5S)-3,5-dimethyl-1-piperidinyl]carbonyl]-1-piperidinyl]phenyl]sulfonyl]-N-hydroxy-4-piperidinecarboxamide, monohydrochloride]", "values": [
      {"measurement": "IC50", "setting": "Recombinant human MMP-2", "result": 10000, "unit": "nM"}
    ]},
    {"molecule": "COCCN1CCC(C(=O)NO)(S(=O)(=O)c2ccc(N3CCC(c4ccc(F)cc4)CC3)cc2)CC1", "note": "[Example 262]", "values": [
      {"measurement": "IC50", "setting": "Recombinant human MMP-2", "result": 1.7, "unit": "nM"},
      {"measurement": "IC50", "setting": "Recombinant human MMP-13", "result": 1, "unit": "nM"}
    ]},
    {"molecule": "O=C(NO)C1(S(=O)(=O)c2ccc(N3CCC(SCc4cccc(C(F)(F)F)c4)CC3)cc2)CCN(C2CC2)CC1", "note": "[Example 149]", "values": [
      {"measurement": "IC50", "setting": "Recombinant human MMP-2", "result": 210, "unit": "nM"},
      {"measurement": "IC50", "setting": "Recombinant human MMP-13", "result": 16.9, "unit": "nM"}
    ]},
    {"molecule": "CN(C)CCN1CCN(C(=O)C2CCN(c3ccc(S(=O)(=O)C4(C(=O)NO)CCOCC4)cc3)CC2)CC1", "note": "[Example 19]", "values": [
      {"measurement": "IC50", "setting": "Recombinant human MMP-2", "result": 10000, "unit": "nM"}
    ]},
    {"molecule": "O=C(NO)C1(S(=O)(=O)c2ccc(N3CCC(c4nnc(-c5ccc(C(F)(F)F)cc5)o4)CC3)cc2)CCOCC1", "note": "[Example 375]", "values": [
      {"measurement": "IC50", "setting": "Recombinant human MMP-2", "result": 2660, "unit": "nM"},
      {"measurement": "IC50", "setting": "Recombinant human MMP-13", "result": 34.4, "unit": "nM"}
    ]},
    {"molecule": "CC1CC(C)CN(C(=O)C2CCN(c3ccc(S(=O)(=O)C4(C(=O)NO)CCN(C(=O)CNCC(F)(F)F)CC4)cc3)CC2)C1", "note": "(stereo not drawn) [Example 113]", "values": [
      {"measurement": "IC50", "setting": "Recombinant human MMP-2", "result": 10000, "unit": "nM"}
    ]},
    {"molecule": "O=C(NO)C1(S(=O)(=O)c2ccc(N3CCC(c4ccc(Cl)cc4)CC3)cc2)CCN(CC2CC2)CC1", "note": "[Example 266]", "values": [
      {"measurement": "IC50", "setting": "Recombinant human MMP-13", "result": 1.7, "unit": "nM"}
    ]},
    {"molecule": "CN(C)c1ccc(C(=O)C2CCN(c3ccc(S(=O)(=O)C4(C(=O)NO)CCOCC4)cc3)CC2)cc1", "note": "[Example 320]", "values": [
      {"measurement": "IC50", "setting": "Recombinant human MMP-2", "result": 10000, "unit": "nM"}
    ]},
    {"molecule": "Cn1ccc2cc(C(=O)C3CCN(c4ccc(S(=O)(=O)C5(C(=O)NO)CCOCC5)cc4)CC3)ccc21", "note": "[Example 340]", "values": [
      {"measurement": "IC50", "setting": "Recombinant human MMP-2", "result": 10000, "unit": "nM"}
    ]}
  ]
}
